Laboratory results reported in patent US8748395B2, “Cell-permeable peptide inhibitors of the JNK signal transduction pathway” (Xigen Inflammation Ltd., priority 2006, dated 2014).

Tests used:
[1] = system: gerbil; conditions: in vivo; cited from earlier work
[2] = system: primary embryonic cultures and differentiated PC12 cells; conditions: dosages that inhibit activation of JNKs; cited from earlier work
[3] = system: WiDr cells; assay: Irradiation (30 Gy) induced apoptosis of WiDr cells; assay type: cell-based, human; conditions: 1 μM added 30 minutes before 30 Gy, analyzed 48 hours later
Experimental: JNK is also activated by ionizing radiation. To determine whether inventive TAT-IB(s) peptides would provide protection against radiation-induced JNK damage, “WiDr” cells were irradiated (30 Gy) in presence or absence of D-TAT, inventive L-TAT-IB1(s) or inventive D-TAT-IB1(s) peptides (1 μM added 30 minutes before irradiation). Control cells (CTRL) were not irradiated. Cells were analyzed 48 hours later by means of PI and Hoechst 3342 staining, as described above. N=3, SEM are indicated.

[4] = system: AP-1 DNA binding complex; assay: Gel retardation assay with AP-1 probe, HeLa cell nuclear extracts, TNF-α; assay type: cell-based; conditions: peptide added 30 minutes before TNF-α 5 ng/ml
[5] = system: JNK; conditions: JBDs; cited from earlier work
[6] = system: βTC-3 cell cultures; assay: Cellular import of fluorescein-labeled TAT and TAT-IB1(s) peptides; assay type: cell-based
Experimental: The ability of the L- and D-enantiomeric forms of TAT and inventive TAT-IB1(s) peptides (“TAT-IB peptides”) to enter cells was evaluated. L-TAT, D-TAT, inventive L-TAT-IB1(s), and inventive D-TAT-IB1(s) peptides [SEQ ID NOs: 5, 6, 9 and 12, respectively] were labeled by N-terminal addition of a glycine residue conjugated to fluorescein. Labeled peptides (1 μM) were added to βTC-3 cell cultures, which were maintained as described in Example 3. At predetermined times cells were washed with PBS and fixed for five minutes in ice-cold methanol-acetone (1:1) before being examined under a fluorescence microscope. Fluorescein-labeled BSA (1 μM, 12 moles/mole BSA) was used as a control.

[7] = system: recombinant JNK1, JNK2 and JNK3; assay: Solid phase kinase assay: JNK-mediated phosphorylation of c-Jun, ATF2 and Elk1; assay type: biochemical
Experimental: (§1) The effects of the peptides on JNKs-mediated phosphorylation of their target transcription factors were investigated in vitro. Recombinant and non activated JNK1, JNK2 and JNK3 were produced using a TRANSCRIPTION AND TRANSLATION rabbit reticulocyte lysate kit (PROMEGA®) and used in solid phase kinase assays with c-jun, ATF2 and Elk1, either alone or fused to glutathione-S-transferase (GST), as substrates. Dose response studies were performed wherein inventive L-TAT or L-TAT-IB1(s) peptides (0-25 μM) were mixed with the recombinant JNK1, JNK2, or JNK3 kinases in reaction buffer (20 mM Tris-acetate, 1 mM EGTA, 10 mM p-nitrophenyl-phosphate (pNPP), 5 mM sodium pyrophosphate, 10 mM p-glycerophosphate, 1 mM dithiothreitol) for 20 minutes. The kinase reactions were then initiated by the addition of 10 mM MgCl2 and 5 pCi^33P-γ-dATP and 1 μg of either GST-Jun (aa 1-89), GST-AFT2 (aa 1-96) or GST-ELK1 (aa 307-428). GST-fusion proteins were purchased from Stratagene (La Jolla, Calif.).
(§2) Ten μL of glutathione-agarose beads were also added to the mixture. Reaction products were then separated by SDS-PAGE on a denaturing 10% polyacrylamide gel. Gels were dried and subsequently exposed to X-ray films (Kodak).
The ability of D-TAT, inventive D-TAT-IB1(s) and inventive L-TAT-IB1 (s) peptides (0-250 μM dosage study) to inhibit GST-Jun (aa 1-73) phosphorylation by recombinant JNK1, JNK2, and JNK3 by were analyzed as described above. Overall, D-TAT-IB1(s) peptide decreased JNK-mediated phosphorylation of c-Jun, but at levels approximately 10-20 fold less efficiently than L-TAT-IB1(s).

[8] = target: T1, JNK3 (Homo sapiens, UniProt P53779); assay: Solid phase kinase assay: JNK3 phosphorylation of Elk1; assay type: biochemical; conditions: dose response 0-25 μM, GST-ELK1 (aa 307-428)
T1 construct: host or cells: rabbit reticulocyte lysate, in vitro transcription/translation
Experimental: as §1, §2

[9] = system: activation of c-Jun by JNK; assay: GAL4 reporter system (GAL-Jun, 5xGAL-LUC) in HeLa cells with MKK4/MKK7 co-transfection; assay type: cell-based
Text: To determine whether the inventive cell-permeable peptides could block JNK signaling in vivo, we used a heterologous GAL4 system. HeLa cells, cultured as described above, were co-transfected with the 5×GAL-LUC reporter vector together with the GAL-Jun expression construct (Stratagene) comprising the activation domain of c-jun (amino acids 1-89) linked to the GAL4 DNA-binding domain. Activation of JNK was achieved by the co-transfection of vectors expressing the directly upstream kinases MKK4 and MKK7 (see Whitmarsh et al., Science 285: 1573 (1999)). Briefly, 3×10^5 cells were transfected with the plasmids in 3.5-cm dishes using DOTAP (Boehringer Mannheim) following instructions from the manufacturer. For experiments involving GAL-Jun, 20 ng of the plasmid was transfected with 1 μg of the reporter plasmid pFR-Luc (Stratagene) and 0.5 μg of either MKK4 or MKK7 expressing plasmids. Three hours following transfection, cell media were changed and TAT and TAT-IB1(s) peptides (1 μM) were added. The luciferase activities were measured 16 hours later using the “Dual Reporter System” from PROMEGA® after normalization to protein content. […] Because HeLa cells express JNK1 and JNK2 isoforms but not JNK3, we transfected cells with JNK3.

[10] = system: βTC-3 cells; assay: Inhibition of IL-1β induced pancreatic β-cell death by TAT-IB peptides; assay type: cell-based
Experimental: We investigated the effects of the inventive L-TAT-IB(s) peptides on the promotion of β-cell apoptosis elicited by IL-1. PTC-3 cell cultures were incubated for 30 minutes with 1 μM of inventive L-TAT-IB1(s) peptides followed by 10 ng/mL of IL-1. A second addition of peptide (1 μM) was performed 24 hours later. Apoptotic cells were counted after two days of incubation with IL-1β using propidium iodide (red stained cell are dead cells) and Hoechst 33342 (blue stained cell are cells with intact plasma membrane) nuclear staining.
Long term inhibition of IL-1 induced cells death was examined by treating βTC-3 cells as described above, except that incubation of the cells with the peptides and IL-1β was sustained for 12 days. Additional peptides (1 μM) were added each day and additional IL-1β (10 ng/mL) was added every 2 days. […] Taken together, these experiments provide evidence that inventive TAT-IB(s) peptides are biologically active molecules able to prevent the effects of JNK signaling on cell fate.
Inhibition of IL-1β induced pancreatic β-cell death by the inventive D-TAT-IB1(s) peptide was analyzed. βTC-3 cells were incubated as described above for 30 minutes with one single addition of the indicated peptides (1, μM), then IL-1 (10 ng/ml) was added.
Apoptotic cells were then counted after two days of incubation with IL-1β by use of Propidium Iodide and Hoechst 33342 nuclear staining. A minimum of 1,000 cells were counted for each experiment. Standard Error of the Means (SEM) are indicated, n=5.
Long term inhibition of IL-1P induced cell-death by the D-TAT-IB1 peptide was also analyzed. βTC-3 cells were incubated as above for 30 minutes with one single addition of the indicated peptides (1 μM), then IL-1β (10 ng/ml) was added, followed by addition of the cytokine every two days. Apoptotic cells were then counted after 15 days of incubation with IL-1 by use of propidium iodide and Hoechst 33342 nuclear staining. […] A minimum of 1.000 cells were counted for each experiment.

[11] = system: JNKs activated by stressful stimuli; assay: c-Jun phosphorylation by activated JNKs pulled down with GST-Jun from UV-irradiated HeLa or IL-1β treated βTC-3 cells; assay type: biochemical; conditions: 25 μM peptide, 20 minutes
Experimental: The effects of the L-TAT or inventive L-TAT-IB1(s) peptides on JNKs activated by stressful stimuli were evaluated using GST-Jun to pull down JNKs from UV-light irradiated HeLa cells or IL-1β treated PTC cells. PTC cells were cultured as described above. HeLa cells were cultured in DMEM medium supplemented with 10% Fetal Calf Serum, 100 μg/mL Streptomycin, 100 units/ml Penicillin and 2 mM Glutamine. One hour prior to being used for cell extract preparation, PTC cells were activated with IL-1β as described above, whereas HeLa cells were activated by UV-light (20 J/m^2). Cell extracts were prepared from control, UV-light irradiated HeLa cells and IL-1β treated βTC-3 cells by scraping the cell cultures in lysis buffer (20 mM Tris-acetate, 1 mM EGTA, 1% Triton X-100, 10 mM p-nitrophenyl-phosphate, 5 mM sodium pyrophosphate, 10 mMP-glycerophosphate, 1 mM dithiothreitol). Debris was removed by centrifugation for five minutes at 15,000 rpm in an SS-34 Beckman rotor. One-hundred μg extracts were incubated for one hour at room temperature with one μg GST-jun (amino acids 1-89) and 10 μL of glutathione-agarose beads (Sigma). Following four washes with the scraping buffer, the beads were resuspended in the same buffer supplemented with L-TAT or inventive L-TAT-IB1(s) peptides (25 μM) for 20 minutes. […]

T1 sequence (P53779 whole entry, species assumed, the tested form may be a part): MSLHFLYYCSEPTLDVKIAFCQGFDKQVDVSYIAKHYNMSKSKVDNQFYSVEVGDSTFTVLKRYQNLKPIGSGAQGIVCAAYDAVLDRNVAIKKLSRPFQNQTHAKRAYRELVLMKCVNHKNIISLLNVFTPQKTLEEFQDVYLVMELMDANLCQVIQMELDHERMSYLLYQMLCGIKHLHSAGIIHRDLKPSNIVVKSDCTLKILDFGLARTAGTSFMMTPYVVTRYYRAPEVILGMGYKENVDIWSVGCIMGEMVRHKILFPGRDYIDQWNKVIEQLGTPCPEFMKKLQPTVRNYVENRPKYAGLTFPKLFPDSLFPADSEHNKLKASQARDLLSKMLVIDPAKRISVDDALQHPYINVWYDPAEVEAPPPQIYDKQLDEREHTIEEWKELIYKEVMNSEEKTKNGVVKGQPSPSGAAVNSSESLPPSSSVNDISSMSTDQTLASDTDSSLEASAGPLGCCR

N#CC(c1ccnc(NCCc2cccnc2)n1)c1nc2ccccc2s1 (centres unmarked) [AS601245]
protection against delayed loss of hippocampal CA1 neurons [1]: significant protection against the delayed loss of hippocampal CA1 neurons

CCSCc1ccc2c(c1)c1c3c(c4c5cc(CSCC)ccc5n5c4c1n2[C@H]1C[C@](O)(C(=O)OC)[C@]5(C)O1)CNC3=O [CEP-1347]
neuronal survival [2]: promotes neuronal survival at dosages that inhibit activation of the c-Jun amino-terminal kinases (JNKs)

H-GRKKRRQRRRPPRPKRPTTLNLFPQVPRSQD-OH [L-TAT-IB1(s)]
prevention of irradiation induced apoptosis [3]: able to prevent irradiation induced apoptosis
formation of the AP-1 DNA binding complex [4]: decrease the formation of the AP-1 DNA binding complex in the presence of TNF-α

IPSPSVEEPHKHRPTTLRLTTLGAQDS (IPSPSVEEPHKHRPTTLRLTTLGAQDS) [IB2]
efficiency in binding JNK relative to c-Jun or ATF2 [5]: approximately 100 fold

NH2-GRKKRRQRRR-COOH (H-GRKKRRQRRR-OH) [L-TAT]
entry of fluorescein labeled peptide into cells ([6]; 1 μM labeled peptide added to culture medium, fluorescence microscope): efficiently and rapidly (less than five minutes) entered cells

NH2-RRRQRRKKRG-COOH (D-amino acids) [D-TAT]
stability inside the cells [6]: extremely stable inside the cells

PGTGCGDTYRPKRPTTLNLFPQVPRSQDT (PGTGCGDTYRPKRPTTLNLFPQVPRSQDT) [IB1]
efficiency in binding JNK relative to c-Jun or ATF2 [5]: approximately 100 fold

TAT-IB(s): enantiomer not worded; the examples concerned name L-TAT-IB1(s) (SEQ ID NO: 9) as the tested peptide (GRKKRRQRRRPPRPKRPTTLNLFPQVPRSQD)
inhibition of JNK family phosphorylation of target transcription factors, overall [7]: superior effects in inhibiting JNK family phosphorylation of their target transcription factors
peptide dose giving nearly complete inhibition of c-Jun, ATF2 and Elk1 phosphorylation by JNKs ([7]; dose response 0-25 μM, doses as low as): 2.5 µM
inhibition of JNK3 phosphorylation of Elk1 [8]: absence of TAT-IB(s) inhibition of JNK3 phosphorylation of Elk1
activation of c-Jun following MKK4 and MKK7 mediated activation of JNK (luciferase) ([9]; 1 μM peptide, luciferase measured 16 hours later): blocked activation of c-Jun following MKK4 and MKK7 mediated activation of JNK
activation of c-Jun in cells transfected with JNK3 ([9]; HeLa cells transfected with JNK3, 1 μM peptide): inhibited JNK2 mediated activation of c-Jun
inhibition of IL-1-induced apoptosis ([10]; 1 μM peptide, second addition at 24 hours, IL-1β 10 ng/mL for two days): inhibited IL-1-induced apoptosis of βTC-3 cells
long term protection against IL-1 induced apoptosis ([10]; 12 days, peptide 1 μM added each day, IL-1β every 2 days): confers strong protection against apoptosis
prevention of phosphorylation of c-Jun by activated JNKs [11]: efficiently prevented phosphorylation of c-Jun by activated JNKs

TDQSRPVQPFLNLTTPRKPRYTDPPRRRQRRKKRG (TDQSRPVQPFLNLTTPRKPRYTDPPRRRQRRKKRG) [D-TAT-IB1, reference compound]
decrease of IL-1 induced apoptosis ([10]; one single addition of peptide 1 μM, two days of IL-1β): decreased IL-1 induced apoptosis to a similar extent as L-TAT-IB peptides
